Blank lines part the entries; values can stand above or below the compound they belong to.
Assay: solvent given as SMILES
[1] = in O=P(c1ccccc1)(c1ccccc1)c1ccccc1Oc1ccccc1P(=O)(c1ccccc1)c1ccccc1
[2] = in c1cc(-c2cccc(-n3c4ccccc4c4ccccc43)c2)cc(-n2c3ccccc3c3ccccc32)c1
[3] = in c1cc(-n2c3ccccc3c3ccccc32)cc(-n2c3ccccc3c3ccccc32)c1

SMILES: CCCCOC(=O)c1cc(Cl)c2c3c(Cl)cc4c5c(cc(Cl)c(c6c(Oc7ccc(C(=O)OC)cc7)cc(C(=O)OCCCC)c1c26)c53)C(=O)N(c1c(C(C)C)cccc1C(C)C)C4=O
fluorescence lifetime (in Cc1ccccc1): 6.09 ns

SMILES: CCN(CC)c1ccc2cc3c(cc2c1)C1(c2ccccc2Oc2ccccc21)c1cc2cc(N(CC)CC)ccc2cc1C3=O
fluorescence lifetime (in CC#N): 2.5 ns

SMILES: CCn1c2ccsc2c2c3nsnc3c3c4sccc4n(CC)c3c21
fluorescence lifetime (in C1CCOC1): 23.7 ns
fluorescence lifetime (in CCOC(C)=O): 24.2 ns
fluorescence lifetime (in CN(C)C=O): 22.1 ns
fluorescence lifetime (in Cc1ccccc1): 19.4 ns
fluorescence lifetime (in ClCCl): 16.6 ns

SMILES: CC(C)(C)c1ccc(C(C)(C)C)c(N2C(=O)c3cccc4c(-c5ccc(-c6ccc(N(c7ccccc7)c7ccccc7)cc6)s5)ccc(c34)C2=O)c1
fluorescence lifetime (in Cc1ccccc1): 2.6 ns

SMILES: Cc1nc2c(c[n+]1C)CN1C(=O)N([C@H]3O[C@@H](CO)[C@H](O)[C@@H]3O)C=CC1=N2
fluorescence lifetime (in CC#N): 3.61 ns
fluorescence lifetime (in CC(C)=O): 3.12 ns
fluorescence lifetime (in CCCO): 0.39 ns
fluorescence lifetime (in CCO): 0.47 ns
fluorescence lifetime (in CO): 0.55 ns
fluorescence lifetime (in O): 1.58 ns
fluorescence lifetime (in [2H]OC): 0.58 ns
fluorescence lifetime (in [2H]OCC): 0.5 ns
fluorescence lifetime (in [2H]O[2H]): 1.86 ns

SMILES: Cc1cc(C)c(B2c3cc(C)ccc3N3c4ccc(C)cc4B(c4c(C)cc(C)cc4C)c4cc(C)cc2c43)c(C)c1
fluorescence lifetime (in Cc1ccccc1-c1cccc(Oc2cc3c4c(c2)Oc2cc(-c5ccccc5C)ccc2B4c2ccc(-c4ccccc4C)cc2O3)c1): 6.9 ns

SMILES: CC(C)(C)c1ccc(-c2c3cccc4c(-c5ccccc5)cc5c(-c6ccc(C(C)(C)C)cc6)c6cccc7c(-c8ccccc8)cc2c(c76)c5c43)cc1
fluorescence lifetime (in ClCCl): 2.98 ns

SMILES: CC1(C)c2ccccc2-c2cc3c4cc(-n5c6ccccc6c6ccccc65)ccc4n(-c4ccc(-c5nc(-c6ccccc6)nc(-c6ccccc6)n5)cc4)c3cc21
fluorescence lifetime [1]: 34 ns

SMILES: CCC1=C(C)C2=C(C)c3cc(I)c(I)n3[B-](F)(F)[N+]2=C1C
fluorescence lifetime (in C1CCCCC1): 1.02 ns
fluorescence lifetime (in CC(C)=O): 0.82 ns
fluorescence lifetime (in CCO): 0.939 ns
fluorescence lifetime (in CCOC(C)=O): 0.893 ns
fluorescence lifetime (in CO): 0.882 ns
fluorescence lifetime (in OCC(F)(F)F): 0.779 ns

SMILES: c1ccc(N2c3ccc4ccccc4c3-c3c4ccccc4cn[n+]3[B-]2(c2ccccc2)c2ccccc2)cc1
fluorescence lifetime (in Cc1ccccc1): 2.56 ns

SMILES: CC(=O)OC[C@H]1O[C@@H](OCC#Cc2ccc(C3=C4C(C)=CC(/C=C/c5ccc(N(C)C)cc5)=[N+]4[B-](F)(F)n4c(/C=C/c5ccc(N(C)C)cc5)cc(C)c43)cc2)[C@H](OC(C)=O)C(OC(C)=O)[C@@H]1OC(C)=O (some centres undefined)
fluorescence lifetime (in CC#N): 2.4 ns

SMILES: N#C/C(=C\c1ccncc1)c1nc(-c2ccccc2)cs1
fluorescence lifetime (in CC#N): 4.85 ns

SMILES: CSc1nc(-c2ccc(-n3c4ccccc4c4ccccc43)cc2)cc(-c2ccc(-n3c4ccccc4c4ccccc43)cc2)n1
fluorescence lifetime (in C1CCOC1): 3.22 ns
fluorescence lifetime (in CN(C)C=O): 7.39 ns
fluorescence lifetime (in Cc1ccccc1): 1.45 ns
fluorescence lifetime (in ClC(Cl)Cl): 3.24 ns

SMILES: CC(C)(C)c1ccc2c(c1)c1cc(C(C)(C)C)ccc1n2-c1ccc(C#Cc2ccc3c4ccc(C#Cc5ccc(-n6c7ccc(C(C)(C)C)cc7c7cc(C(C)(C)C)ccc76)cc5)cc4n(-c4ccc(C(F)(F)F)cc4)c3c2)cc1
fluorescence lifetime (in ClCCl): 0.1 ns

SMILES: O=c1c2ccccc2n2c3ccccc3c(=O)c3cc(-c4ccccc4)cc1c32
fluorescence lifetime [2]: 5.47 ns
fluorescence lifetime [3]: 5.47 ns

SMILES: CCNc1cc2oc(=O)cc(C(F)(F)F)c2cc1C
fluorescence lifetime (in CC#N): 7.7 ns

SMILES: CC(C)c1cccc(C(C)C)c1N1C(=O)c2cccc3c(Oc4ccccc4)ccc(c23)C1=O
fluorescence lifetime (in ClCCl): 4.67 ns

SMILES: CC1(C)[C@@H]2[C@@H]1[C@]1(c3ccccc3)N=NC2(c2ccccc2)C2C3C=CC(C3)C21 (some centres undefined)
fluorescence lifetime (in CC#N): 402 ns

SMILES: Nc1ccccn1
fluorescence lifetime (in C1CCCCC1): 24.2 ns
fluorescence lifetime (in CC#N): 5 ns
fluorescence lifetime (in CCO): 5.1 ns
fluorescence lifetime (in CCOCC): 10.8 ns
fluorescence lifetime (in O): 24.4 ns

SMILES: COc1c(-c2ccc(N(C)C)cc2)oc2ccccc2c1=O
fluorescence lifetime (in C1CCCCC1): 0.67 ns
fluorescence lifetime (in C1CCOC1): 2.05 ns
fluorescence lifetime (in CC#N): 2.71 ns
fluorescence lifetime (in CCOC(C)=O): 1.67 ns
fluorescence lifetime (in CCOCC): 0.88 ns

SMILES: COc1ccc2oc(=N)c(C#N)cc2c1
fluorescence lifetime (in ClCCl): 1.6 ns

SMILES: CN1CCc2cc(C3=Cc4cccc[n+]4[B-](F)(F)O3)ccc21
fluorescence lifetime (in ClC(Cl)Cl): 3.11 ns

SMILES: COC(=O)C([NH3+])Cc1ccc2oc(-c3ccncc3)nc2c1 (centres undefined)
fluorescence lifetime (in CC1CCCCC1): 3.12 ns
fluorescence lifetime (in CC#N): 6.09 ns
fluorescence lifetime (in CO): 0.742 ns
fluorescence lifetime (in O): 0.999 ns

SMILES: C(=C\c1ccc(-n2c3ccccc3c3ccccc32)cc1)/c1ccc(-c2ccc(/C=C/c3ccc(-n4c5ccccc5c5ccccc54)cc3)cc2)cc1
fluorescence lifetime (in Cc1ccccc1): 0.87 ns
fluorescence lifetime (in c1ccc2c(c1)c1ccccc1n2-c1ccc(-c2ccc(-n3c4ccccc4c4ccccc43)cc2)cc1): 1.3 ns

SMILES: CC(C)(C)c1ccc(-c2nc3c4ccc(-c5ccccc5)cc4c4cc(-c5ccccc5)ccc4c3n2-c2ccc(C(C)(C)C)cc2)cc1
fluorescence lifetime (in ClCCl): 10.1 ns

SMILES: CCCCCCCCCCCCN1C(=O)c2cccc3c(N(Cc4ccccn4)Cc4ccccn4)c4ccccc4c(c23)C1=O
fluorescence lifetime (in CCO): 5.52 ns

SMILES: c1ccc2c(c1)Sc1ccc(-n3c4ccccc4c4ccccc43)cc1S2
fluorescence lifetime (in CC1CCCCC1): 9.4 ns
fluorescence lifetime [1]: 3.5 ns
fluorescence lifetime [2]: 5.1 ns

SMILES: CCN(CC)c1ccc2cc(/C=C/C(=C(C#N)C#N)c3ccc(N(c4ccccc4)c4ccccc4)cc3)c(=O)oc2c1
fluorescence lifetime (in CC(C)=O): 0.59 ns
fluorescence lifetime (in CCOC(C)=O): 1.31 ns
fluorescence lifetime (in CN(C)C=O): 0.33 ns
fluorescence lifetime (in CS(C)=O): 0.33 ns
fluorescence lifetime (in Cc1ccccc1): 0.84 ns
fluorescence lifetime (in ClCCl): 2.88 ns

SMILES: COc1ccc(-c2csc(/C(C#N)=C/c3ccc(Cl)cc3Cl)n2)cc1
fluorescence lifetime (in CC#N): 3.05 ns

SMILES: O=c1oc2ccccc2cc1-c1ccc(-c2cc3ccccc3oc2=O)cc1
fluorescence lifetime (in ClC(Cl)Cl): 1.4 ns

SMILES: CC(C)(C)c1ccc(-c2nc3c4ccc(-c5cc6ccccc6c6ccccc56)cc4c4cc(-c5cc6ccccc6c6ccccc56)ccc4c3n2-c2ccc(C(C)(C)C)cc2)cc1
fluorescence lifetime (in ClCCl): 7 ns

SMILES: COc1ccc(C2=C(C)C3=C(c4c(-c5ccccn5)nc5ccccn45)c4c(C)c(-c5ccc(OC)cc5)c(C)n4[B-](F)(F)[N+]3=C2C)cc1
fluorescence lifetime (in ClCCl): 3.5 ns

SMILES: CC1=[N+]2C(=Cc3cccn3[B-]2(F)F)C=C1
fluorescence lifetime (in CCCCCC): 6.75 ns
fluorescence lifetime (in CO): 6.96 ns
fluorescence lifetime (in ClCCl): 6.2 ns

SMILES: Cc1ccc(C(=O)NN2C3=C(CC4=C2CCCC4=O)C(=O)CCC3)cc1
fluorescence lifetime (in C1CCOC1): 4.1 ns
fluorescence lifetime (in CC#N): 5.9 ns
fluorescence lifetime (in CC(C)=O): 5.1 ns
fluorescence lifetime (in CCCCCO): 5.9 ns
fluorescence lifetime (in CO): 4.6 ns
fluorescence lifetime (in ClC(Cl)Cl): 7.9 ns
fluorescence lifetime (in ClCCl): 5.3 ns

The next lines start with the values.

fluorescence lifetime (in ClCCl): 0.58 ns
SMILES: COC(=O)c1[nH]c(-c2ccc(Br)cc2)c2nnc3ccc(OC)cc3c12

fluorescence lifetime (in C1CCOC1): 2.31 ns
SMILES: CCn1c2ccccc2c2cc(-c3cc(-c4ccc5c(c4)c4ccccc4n5CC)nc(S(C)(=O)=O)n3)ccc21

fluorescence lifetime (in CO): 8 ns
fluorescence lifetime (in ClC(Cl)Cl): 9.6 ns
fluorescence lifetime (in O): 4.4 ns
SMILES: CC(=O)OCCOCCN1C(=O)c2cc(NCCOCCO)c3c4c(cc(NCCOCCO)c(c24)C1=O)C(=O)N(CCOCCOC(C)=O)C3=O

fluorescence lifetime (in CC#N): 0.56 ns
SMILES: C=C[C@]12CC[C@H](CC1)N=N2

fluorescence lifetime (in ClC(Cl)Cl): 0.377 ns
SMILES: Cc1ccc(C2=Cc3c4ccccc4cc[n+]3[B-](F)(F)O2)cc1

fluorescence lifetime (in CO): 0.529 ns
SMILES: CC1(C)C(/C=C/C2=C(Cl)C(=C/C=C3/N(CCCS(=O)(=O)[O-])c4ccccc4C3(C)C)/CCC2)=[N+](CCCS(=O)(=O)[O-])c2ccccc21

fluorescence lifetime (in C1CCOC1): 5.14 ns
SMILES: CCn1c2ccccc2c2cc(-c3cc(-c4ccc5c(c4)c4ccccc4n5CC)nc(-c4ccc(C#N)cc4)n3)ccc21

fluorescence lifetime (in ClCCl): 22.3 ns
SMILES: CC(C)(C)C#Cc1cc2c(C#CC(C)(C)C)c(C#CC(C)(C)C)c3cc(C#CC(C)(C)C)cc4c(C#CC(C)(C)C)c(C#CC(C)(C)C)c(c1)c2c34

fluorescence lifetime (in ClC(Cl)Cl): 1.53 ns
SMILES: COc1ccc(C2=c3sc(-c4ccc(OC)cc4)c(-c4ccc(OC)cc4)c3=[N+]3C2=Nc2c(-c4ccc(OC)cc4)c4sc(-c5ccc(OC)cc5)c(-c5ccc(OC)cc5)c4n2[B-]3(F)F)cc1

fluorescence lifetime (in C1CCCCC1): 2.7 ns
fluorescence lifetime (in CCOC(C)=O): 0.9 ns
SMILES: CC1=[N+]2C(=C(c3ccc(C=O)cc3)c3ccc(C)n3[B-]2(F)F)C=C1c1cc2n(c1)[B-](F)(F)[N+]1=CC=CC1=C2c1c(C)cc(C)cc1C

fluorescence lifetime (in ClCCl): 1.97 ns
SMILES: CCCCOc1ccc(-c2oc3cc4n(c3c2-c2ccc(OCCCC)cc2)[B-](F)(F)[N+]2=Cc3cc5oc(-c6ccc(OCCCC)cc6)c(-c6ccc(OCCCC)cc6)c5n3[B-](F)(F)[N+]2=C4)cc1

fluorescence lifetime (in CS(C)=O): 0.06 ns
SMILES: Cn1c(=O)c(/N=N/c2cc(S(=O)(=O)O)ccc2C(=O)O)c(O)c2ccccc21

fluorescence lifetime (in CCO): 0.79 ns
SMILES: CC1(C)CC(/C=C/c2ccc(N3CCOCCOCCOCCOCC3)cc2)=CC(=C(C#N)C#N)C1

fluorescence lifetime [3]: 134 ns
SMILES: O=C(c1ccc(N2c3ccccc3[Si](c3ccccc3)(c3ccccc3)c3ccccc32)cc1)c1ccc(N2c3ccccc3[Si](c3ccccc3)(c3ccccc3)c3ccccc32)cc1

fluorescence lifetime (in CCCCCC): 52.9 ns
fluorescence lifetime (in CO): 85.7 ns
fluorescence lifetime (in ClCCl): 40.3 ns
SMILES: CC(C)c1ccc2ccc3c(C(C)C)ccc4ccc1c2c43

fluorescence lifetime (in ClCCl): 8.2 ns
SMILES: CCOc1ccc(/C=C/c2nc(N3CCOCC3)c3c([n+]2[O-])CCCC3)cc1

fluorescence lifetime (in C1CCCCC1): 0.1 ns
fluorescence lifetime (in CC#N): 0.16 ns
fluorescence lifetime (in CO): 0.0052 ns
fluorescence lifetime (in CS(C)=O): 0.1 ns
fluorescence lifetime (in c1ccccc1): 0.9 ns
SMILES: CN(C)c1ccc(C(=O)c2ccccc2)cc1

fluorescence lifetime (in CC#N): 1.8 ns
SMILES: Cc1cccc2c1nc1c(=O)n(C)c(=O)nc-1n2C

fluorescence lifetime (in CC#N): 0.35 ns
fluorescence lifetime (in CCO): 4.2 ns
fluorescence lifetime (in CCOC(C)=O): 0.066 ns
fluorescence lifetime (in CO): 6.7 ns
fluorescence lifetime (in ClC(Cl)Cl): 0.57 ns
fluorescence lifetime (in OCC(F)(F)F): 13 ns
SMILES: COc1ccc2cc3c(C)cc(=O)oc3cc2c1

fluorescence lifetime (in O): 3.6 ns
SMILES: CCN1CCCc2cc3c(cc21)Oc1cc2c(cc1=N3)C(CS(=O)(=O)[O-])CC(C)(C)[N+]=2CCCC(=O)[O-] (centres undefined)

fluorescence lifetime (in ClCCl): 4.7 ns
SMILES: O=P1(c2ccccc2)C(c2ccc(N(c3ccccc3)c3ccccc3)cc2)=Cc2cc3ccccc3cc21 (centres undefined)

fluorescence lifetime (in C1COCCO1): 1.32 ns
fluorescence lifetime (in CC#N): 2.52 ns
SMILES: C(/C=C/c1ccc(-n2c3ccccc3c3ccccc32)cc1)=C\c1ccncc1

— the Deep4Chem optical property database
